Values quoted from earlier work, collected in patent US20020160936A1, “HCV E2 PROTEIN BINDING AGENTS FOR TREATMENT OF HEPATITIS C VIRUS INFECTION” (priority 1999, published 2002).

System: hepatitis C virus
Conditions: subjects with chronic hepatitis C

## interferon-alpha
  long-term cure rate: less than 10%
